Measurements published in US20220378744A1, “COMPOUNDS FOR TREATING PROLIFERATOR-ACTIVATED RECEPTORS (PPAR) MEDIATED DISEASES OR CONDITIONS” (MEDIPURE PHARMACEUTICALS INC., priority 2021, published 2022).

How the values were obtained:
[1] = system: IMQ-induced psoriasis in BALB/c mice; test: IMQ-induced psoriasis model in BALB/c mice, topical creams, PASI score; assay type: in vivo
Experimental: The animal experiment is conducted in accordance with the Guidelines for the Institutional Animal Care and Use Committee. Both male and female BALB/c mice from Rodenta Bioserve, India, at 7-8 weeks of age and 20-25 gram of body weight are housed in a laboratory environment with constant temperature (24.0±1.0° C.) and relative humidity (45.0-55.0%) on a 12 h light/dark cycles. These animals are provided free access to unlimited amounts of food and water during the entire experiment. The animals are divided into 12 groups of 8 mice each and shaved on the back on day 0 for an area of 2×2 cm . Human-like psoriasis in mice is induced by topical application of 5% Imiquimod (IMQ) procured from AK Scientific, USA, and formulated in the base cream at desired percentages in-house, in shaved area and right ear (0.5×0.5 cm). […] Vehicle, clobetasol propionate (CP, Sigma. 0.05% w/w; positive control), test creams, and CBD (Ilesol Pharmaceuticals), respectively, is applied topically on both the shaved back (80 mg cream) and the right ear (20 mg cream) of mice, once daily from day 10 to day 16. The study ends at day 17. At stated time points the severity of psoriasis is evaluated using the PASI score (Psoriasis Area Severity Index: sum of erythema, scaling and thickening, scored independently from 0 to 4 for each mouse; max PASI score=12). Tissue and blood samples are collected for histopathology, biochemistry and immunoassay from each animal at various points.

human PPARα (NR1C1) = biological target: T1, human PPARα (NR1C1) (Homo sapiens, UniProt Q07869); test: Cell-based human PPARα transactivation (nuclear receptor reporter) assay; settings: for PPARα transactivation: concentration at which (or starting at which) active: luciferase reporter cells, 24 h treatment, FIG. 1; for activating PPARα: at 10 μM
T1 sequence (Q07869 1-468): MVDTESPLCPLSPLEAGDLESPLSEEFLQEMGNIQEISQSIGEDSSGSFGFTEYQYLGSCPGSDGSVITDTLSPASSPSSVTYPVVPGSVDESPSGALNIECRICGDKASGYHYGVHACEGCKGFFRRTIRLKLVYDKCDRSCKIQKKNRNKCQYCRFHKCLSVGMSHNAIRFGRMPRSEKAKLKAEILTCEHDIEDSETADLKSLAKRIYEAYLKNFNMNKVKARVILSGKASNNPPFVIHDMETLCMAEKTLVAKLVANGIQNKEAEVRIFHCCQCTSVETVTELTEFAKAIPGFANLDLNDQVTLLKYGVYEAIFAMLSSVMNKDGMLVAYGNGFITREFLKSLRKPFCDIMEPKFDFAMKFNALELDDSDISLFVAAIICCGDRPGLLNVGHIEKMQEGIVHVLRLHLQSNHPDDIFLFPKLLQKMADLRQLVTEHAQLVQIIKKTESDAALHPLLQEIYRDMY
Experimental: (§1) The assay was performed using cell-based human PPAR nuclear receptor reporter assay kits (NR1C1 for PPARα; NR1C2 for PPARδ/β, and NR1C3 for PPARγ, Indigo Biosciences) by following the manufacturer's instruction. In brief, PPAR reporter cells were added to CRM medium (Indigo Biosciences), seeded into wells of a 96-well culture plate and incubated for 5 hours in a cell culture incubator at 37° C. with 5% CO2. The medium was then removed, and the cells were treated with test compounds at different concentrations in CSM medium (Indigo Biosciences) for 24 h inside the incubator. […] DMSO (Sigma) at 0.1% (v/v) was used as negative baseline control (C). Each treatment was tested in duplicate wells. At the end point of the experiments, the treatment medium was discarded and Luciferase Detection Reagent (Indigo Biosciences) was added. Following a 10-minute rest period, the intensity of light emission (in units of “Relative Light Units; RLU”) from each assay well was quantified using a plate-reading luminometer (Synergy H1 plate reader, BioTek). In addition, live cell multiplex assay (Indigo Biosciences) was combined with the activation assays to detect potential cytotoxic effect, if any, of the test chemicals to normalize the signals as per manufacturer's instruction.

human PPARγ (NR1C3) = biological target: T2, human PPARγ (NR1C3) (Homo sapiens, UniProt P37231); test: Cell-based human PPARγ transactivation (nuclear receptor reporter) assay; settings: for activating PPARγ: at 1 μM
T2 sequence (P37231 1-505): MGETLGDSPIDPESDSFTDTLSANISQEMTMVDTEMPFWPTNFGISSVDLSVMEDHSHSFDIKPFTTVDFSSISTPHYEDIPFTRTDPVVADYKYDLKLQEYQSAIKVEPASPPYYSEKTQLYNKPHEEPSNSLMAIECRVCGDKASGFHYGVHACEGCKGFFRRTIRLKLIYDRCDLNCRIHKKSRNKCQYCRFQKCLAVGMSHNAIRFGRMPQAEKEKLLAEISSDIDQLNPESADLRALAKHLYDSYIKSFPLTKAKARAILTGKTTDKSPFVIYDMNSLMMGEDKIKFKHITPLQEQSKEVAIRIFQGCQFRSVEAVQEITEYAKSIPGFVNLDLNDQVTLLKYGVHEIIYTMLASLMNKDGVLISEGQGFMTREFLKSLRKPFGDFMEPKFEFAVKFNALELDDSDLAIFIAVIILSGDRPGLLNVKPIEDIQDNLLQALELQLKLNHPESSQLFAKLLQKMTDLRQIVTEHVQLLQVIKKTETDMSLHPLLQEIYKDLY
Experimental: as §1

[2] = system: LPS-stimulated HaCaT cells; test: Anti-inflammatory effect, LPS-stimulated HaCaT cell model (IL-6, IL-8 ELISA); assay type: cell-based, human; settings: LPS 20 μg/mL, 24 h
Experimental: (§2) Three in vitro models based on HaCaT cell culture were tested. HaCaT cells were maintained as described above in DMEM high glucose (4.5g/L) medium supplemented with 10% FBS and 1% (v/v) penicillin/streptomycin solution (Invitrogen, Thermo Fisher) and kept in an incubator at 37° C. with 5% CO2. For experiments, the cells were seeded at 5×10^4 cells/well in 1 mL of medium to a 24-well culture plate (Nunc, Thermo Fisher) and incubated overnight.
(§3) (1) For the imiquimod (IMQ)-stimulated HaCaT model, IMQ (Alfa Aesar) at 50 μM final concentration was used in the experiments; (2) for TNFα/IL-17A-stimulated-HaCaT model, 2 ng/mL of each cytokine (R&D Systems) was used; and (3) for the lipopolysaccharide (LPS, Sigma) simulated HaCaT cell model, 20 μg/mL LPS was used. For drug chemical treatment the old medium in the culture plates described above was discarded and the corresponding stimulant (IMQ, TNFα/IL-17A, or LPS) with or without test chemicals in 0.5 mL fresh medium was added to each cell well. There were duplicate wells for each treatment. The plate was incubated for another 24 h and the supernatant was collected for cytokine analysis, namely IL-6 and IL-8, using the corresponding ELISA kits (Thermo Fisher). The experiments were repeated independently to confirm the observation.

[3] = system: IMQ-stimulated HaCaT cells; test: Anti-inflammatory effect, IMQ-stimulated HaCaT cell model (IL-6, IL-8 ELISA); assay type: cell-based, human; settings: IMQ 50 μM, 24 h, vs control
Experimental: as §2
as §3, with “Fisher).” for “Fisher). The experiments were repeated independently to confirm the observation.”

Row | PPARα transactivation: concentration at which (or starting at which) active (human PPARα (NR1C1)) [µM] | activating PPARγ (human PPARγ (NR1C3)) | activating PPARα (human PPARα (NR1C1)) | SMILES | also measured
1 | – | – | – | CCC(=O)O[C@]1(C(=O)CCl)[C@@H](C)C[C@H]2[C@@H]3CCC4=CC(=O)C=C[C@]4(C)[C@@]3(F)[C@@H](O)C[C@@]21C [CP, clobetasol propionate, reference compound] | reducing the PASI score ([1]; 0.05% w/w cream, once daily day 10 to day 16, FIG. 11): effective
2 | 0.001 | – | – | Cc1nc(-c2ccc(C(F)(F)F)cc2)sc1C(=O)NCc1ccc(OC(C)(C)C(=O)O)cc1 [GW590375, reference compound] | –
3 | – | highly effective | not effective | CCCc1cc(C(=O)c2ccc(-c3ccccc3)cc2)ccc1OCCOc1ccc2c(cnn2C(OCC)C(=O)O)c1 (stereo not drawn) [KV 196, 2-(5-(2-(4-([1,1′-biphenyl]-4-carbonyl)-2-propylphenoxy)ethoxy)-1H-indazol-1-yl)-2-ethoxyacetic acid] | –
4 | – | highly effective | not effective | CCCc1cc(C(=O)c2ccc(F)cc2)ccc1OCCCOc1ccc2c(cnn2C(OCC)C(=O)OC)c1 (stereo not drawn) [KV-157, methyl 2-ethoxy-2-(5-(3-(4-(4-fluorobenzoyl)-2 propylphenoxy)propoxy)-1H-indazol-1-yl)acetate] | –
5 | – | highly effective | not effective | CCCc1cc(C(=O)c2ccc(F)cc2)ccc1OCCOc1ccc2c(cnn2C(OCC)C(=O)OCC)c1 (stereo not drawn) [KV-163A, ethyl 2-ethoxy-2-(5-(2-(4-(4-fluorobenzoyl)-2-propylphenoxy)ethoxy)-1H-indazol-1-yl)acetate] | –
6 | – | highly effective | not effective | CCCc1cc(C(=O)c2ccc(-c3ccccc3)cc2)ccc1OCCCOc1ccc2c(cnn2C(OCC)C(=O)OCC)c1 (stereo not drawn) [KV-165, ethyl 2-(5-(3-(4-([1,1′-biphenyl]-4-carbonyl)-2-propylphenoxy)propoxy)-1H-indazol-1-yl)-2-ethoxyacetate] | –
7 | – | highly effective | not effective | CCCc1cc(C(=O)c2ccc(-c3ccccc3)cc2)ccc1OCCCOc1ccc2c(cnn2C(OCC)C(=O)O)c1 (stereo not drawn) [KV-180, 2-(5-(3-(4-([1.1′-biphenyl]-4-carbonyl)-2-propylphenoxy)propoxy)-1H-indazol-1-yl)-2-ethoxyacetic acid] | –
8 | – | – | not effective | CCCc1cc(C(=O)c2ccc(F)cc2)ccc1OCCOc1ccc2c(cnn2C(OCC)C(=O)O)c1 (stereo not drawn) [KV-192, 2-ethoxy-2-(5-(2-(4-(4-fluorobenzoyl)-2-propylphenoxy)ethoxy)-1H-indazol-1-yl)acetic acid] | concentration at which PPARγ was activated (human PPARγ (NR1C3)): 10 µM
9 | – | highly effective | not effective | CCCc1cc(C(=O)c2ccc(-c3ccccc3)cc2)ccc1OCCOc1ccc2c(cnn2C(OCC)C(=O)OCC)c1 (stereo not drawn) [KV-194A, Ethyl 2-(5-(2-(4-([1,1,′-biphenyl]-4-carbonyl)-2-propylphenoxy)ethoxy)-1H-indazol-1-yl)-2-ethoxyacetate] | –
10 | 5 | – | – | CCCc1cc(C(=O)c2ccc(-c3ccccc3)cc2)ccc1OCCCOc1ccc2c(cnn2CC(=O)OC)c1 [MP-153, methyl 2-(5-(3-(4-([1,1′-biphenyl]-4-carbonyl)-2-propylphenoxy)propoxy)-1H-indazol-1-yl)acetate] | production of IL-6 ([3]; compound at 2.5 μM): significantly inhibited; production of IL-6 ([3]; compound at 25 μM): significantly inhibited
11 | 1 | – | – | CCCc1cc(C(=O)c2ccc(F)cc2)ccc1OCCCOc1ccc2c(cnn2CC(=O)O)c1 [MP-154, 2-(5-(3-(4-(4-fluorobenzoyl)-2-propylphenoxy)propoxy)-1H-indazol-1-yl)acetic acid] | PPARγ transactivation: concentration at which (or starting at which) active (human PPARγ (NR1C3); FIG. 3): 1,000 nM; production of IL-6 ([3]; compound at 2.5 μM): no anti-inflammatory effect; production of IL-6 ([3]; compound at 25 μM): significantly inhibited

Row | SMILES | PPARα transactivation: concentration at which (or starting at which) active (human PPARα (NR1C1)) [µM] | activating PPARγ (human PPARγ (NR1C3)) | activating PPARα (human PPARα (NR1C1)) | also measured
12 | CCCc1cc(C(=O)c2ccc(-c3ccccc3)cc2)ccc1OCCCOc1ccc2c(cnn2CC(=O)O)c1 [MP-151, 2-(5-(3-(4-([1,1′-biphenyl]-4-carbonyl)-2-propylphenoxy)propoxy)-1H-indazol-1-yl)acetic acid] | 5 | – | – | reduction of IL-8 production compared with rosiglitazone and fenofibrate ([2]; 25 μM): more active; production of IL-6 ([2]; compound at 25 uM): reduced; tolerability in mice ([1]; topical, seven-day consecutive treatment, even at 10% creams): well tolerated; visual damage on the skin ([1]; topical, seven-day consecutive treatment, up to 10% creams): No visual damage; production of IL-6 ([3]; compound at 2.5 μM): significantly inhibited; production of IL-6 ([3]; compound at 25 μM): significantly inhibited
